Data from publication PMC5614861 (Organic & biomolecular chemistry, 2017).
“And” between values parts separate entries of the source, which are not always exact repeats. Identical values can stand only once. Numbered stars: 1 amine (or outer) side, 2 acyl side, 3 side chain; on linkers, the order of the positions; unused ones are H or OH. Bridge positions count the residues as written; N and C are the ends. Square brackets hold non-standard residues; d marks the D form. Peptide text beside a SMILES is read from it. X2 = O=C([C@@H]1C[C@H](n2cc(C3=CC=C[CH]3[Fe][CH]3C=CC=C3)nn2)CN1[*:1])[*:2]; X1 = O=C([C@@H]1C[C@H](n2cc(-c3ccc(-c4cccs4)cc3)nn2)CN1[*:1])[*:2]

Experiments:
[1] = target: monomeric wild type gp120 YU-2 (Human immunodeficiency virus type 1 group M subtype B, UniProt P35961); assay: Isothermal titration calorimetry; assay type: binding, HIV-1; settings: ITC, 25°C, 1× PBS pH 7.3
[2] = tested on: HIV-1Bal.01; assay type: cell-based; settings: cutoff 10 μM
[3] = tested on: HOS.T4.R5 cells; assay: Cytotoxicity / cell viability assay; assay type: cell-based; settings: WST-1, 24 h post-exposure, highest concentration used 100 μM
[4] = target: HIV-1 YU-2 gp120 binding to sCD4 (Human immunodeficiency virus type 1 group M subtype B, UniProt P35961); assay: SPR competition assay, inhibition of gp120 binding to CD4; settings: 250 nM YU-2 gp120, 25°C, PBS pH 7.4, triplicate

Compound: CC[C@H](C)[C@@H]1NC(=O)[C@H](CC(N)=O)NC(=O)[C@@H](N)CC(=O)NCCCC[C@@H](C(N)=O)NC(=O)[C@H](Cc2c[nH]c3ccccc23)NC(=O)[C@@H]2C[C@H](n3cc(C4=CC=C[CH]4[Fe][CH]4C=CC=C4)nn3)CN2C1=O (stereo partly drawn) [cPT 3] (H-DNI[X2]WK-NH2; lactam 1-6)
- ΔH [1]: -5.96 kcal/mol and -5.96 ± 0.13 kcal/mol
- ΔS [1]: 0.00922 kcal/mol
- −TΔS [1]: -2.75 kcal/mol

Compound: cPT 11
- Activity designation in HIV-1Bal.01 infection inhibition assay [2]: weak (the compound showed weak inhibition (less than 50%) at 10 μM)

Compound: CC[C@H](C)[C@@H]1NC(=O)[C@H](CC(N)=O)NC(=O)[C@@H](N)CC(=O)NCCCC[C@@H](C(N)=O)NC(=O)[C@H](Cc2c[nH]c3ccccc23)NC(=O)[C@@H]2C[C@H](n3cc(-c4ccc(-c5cccs5)cc4)nn3)CN2C1=O [cPT 36] (H-DNI[X1]WK-NH2; lactam 1-6)
- Cytotoxicity (cell viability) [3]: no cytotoxicity was detected
- Inhibition of gp120 binding to CD4 [4]: inhibited
- ΔH [1]: -4.07 ± 0.06 kcal/mol
- ΔS [1]: 0.0159 kcal/mol
- −TΔS [1]: -4.74 kcal/mol
